In patent EP0906100B1, “USE OF 5-HT 1A? RECEPTOR ANTAGONISTS FOR THE TREATMENT OF URINARY INCONTINENCE” (RECORDATI S.A., priority 1996, dated 1997):

System: cystometric parameters (bladder volume capacity, micturition pressure)
Assay: Cystometric parameters (BVC, MP) in the conscious rat
Format: in vivo, rats
Settings: for BVC before treatment / MP before treatment: baseline; for BVC before treatment / MP before treatment / BVC after treatment / MP after treatment: mean±S.E.
Protocol: Male Sprague Dawley rats (Crl: CD° BR) weighing 250-350 g were used. The animals were housed with free access to food and water and maintained on a forced 12 h alternating light-dark cycle at 22-24°C for at least one week, except during performance of the experiment.
An approximately 10 mm long midline incision was made in the shaved and cleaned abdominal wall. The urinary bladder was gently freed from adhering tissues, emptied, and then cannulated, via an incision at the dome, with a polyethylene cannula (Portex PP30), which was permanently sutured with silk thread. The cannula was exteriorized through a subcutaneous tunnel in the retroscapular area, where it was connected with a plastic adapter to avoid the risk of removal by the animal. For intravenous (i.v.) injection of test compounds, a PE 50 polyethylene tubing filled with physiological saline was inserted into the jugular vein and exteriorized in the retroscapular area.
Since cystometrographic parameters have been reported to be influenced by the time elapsed after catheter implantation […].
On the day of the experiment, the rats were placed in Bollman's cages; after a stabilization period of 20 min, the free tip of the bladder catheter was connected through a T-shaped tube to a pressure transducer (Bentley T 800/Marb P 82) and to a peristaltic pump (Gilson minipuls 2) for a continuous infusion, at the constant rate of 0.1 ml/min, of saline solution into the urinary bladder. The intraluminal pressure signal during infusion was continuously recorded on a polygraph (Battaglia Rangoni KO 380 with ADC1/T amplifier). Two urodynamic parameters were evaluated: bladder volume capacity (BVC) and micturition pressure (MP). BVC (in ml) is defined as the minimum volume infused after which detrusor contraction (followed by micturition) occurs. MP (in mmHg) is defined as the maximal intravesical pressure induced by the contraction of detrusor during micturition. Basal BVC and MP values were calculated as the means of the first two recorded cystometrograms. At this point, the infusion was interrupted and the test compounds were administered. Fifteen minutes after intravenous administration, or one hour after oral drug administration, two additional cystometrograms were recorded in each animal and the mean values of the two cystometrographic parameters were calculated.
The statistical significance of the differences in urodynamic parameter values was evaluated by Student's t test for paired data. Only changes showing a probability P<0.01 were considered to be significant.

[1] = 100 µg/kg i.v., 15 min after injection
[2] = 300 µg/kg i.v., 15 min after injection
[3] = 1000 µg/kg i.v., 15 min after injection
[4] = 1 mg/kg p.o., 1 hour after oral administration
[5] = 2000 µg/kg i.v., 15 min after injection
[6] = 3 mg/kg p.o., 1 hour after oral administration
[7] = 10 mg/kg p.o., 1 hour after oral administration

COc1ccccc1N1CCN(CCN(C(=O)C2CCCCC2)c2ccccn2)CC1 [Compound A, N-{2-[4-(2-methoxyphenyl)-1-piperazinyl]-ethyl}-N-(2-pyridyl)-cyclohexanecarboxamide]
BVC before treatment (100 µg/kg i.v. group): 0.65 ± 0.06 mL
MP before treatment (100 µg/kg i.v. group): 93.0±8.3 mmHg
BVC % change [1]: +4%
MP % change [1]: -10%
BVC after treatment [1]: 0.66 ± 0.08 mL
MP after treatment [1]: 83.8±8.7 mmHg
BVC before treatment (300 µg/kg i.v. group): 0.47 ± 0.05 mL
MP before treatment (300 µg/kg i.v. group): 78.7±5.8 mmHg
BVC % change [2]: +32%
MP % change [2]: -11%
BVC after treatment [2]: 0.63 ± 0.06 mL
MP after treatment [2]: 70.0±4.1 mmHg
BVC before treatment (1000 µg/kg i.v. group): 0.64 ± 0.05 mL
MP before treatment (1000 µg/kg i.v. group): 104.6±6.4 mmHg
BVC % change [3]: +29%
MP % change [3]: -13%
BVC after treatment [3]: 0.83 ± 0.07 mL
MP after treatment [3]: 91.0±6.3 mmHg
BVC before treatment (1 mg/kg p.o. group): 0.52 ± 0.07 mL
MP before treatment (1 mg/kg p.o. group): 96.0±8.4 mmHg
MP % change [4]: -2%
BVC after treatment [4]: 0.60 ± 0.08 mL
MP after treatment [4]: 93.7±7.2 mmHg
BVC before treatment (2000 µg/kg i.v. group): 0.48 ± 0.04 mL
MP before treatment (2000 µg/kg i.v. group): 101.8±10.9 mmHg
BVC % change [5]: +32%
MP % change [5]: -20%
BVC after treatment [5]: 0.63 ± 0.05 mL
MP after treatment [5]: 81.5±14.1 mmHg
BVC before treatment (3 mg/kg p.o. group): 0.67 ± 0.07 mL
MP before treatment (3 mg/kg p.o. group): 112.5±6.5 mmHg
BVC % change [6]: +35%
MP % change [6]: -4%
BVC after treatment [6]: 0.91 ± 0.10 mL
MP after treatment [6]: 107.6±9.2 mmHg
BVC before treatment (10 mg/kg p.o. group): 0.54 ± 0.06 mL
MP before treatment (10 mg/kg p.o. group): 90.2±7.1 mmHg
BVC % change [7]: +37%
MP % change [7]: -4%
BVC after treatment [7]: 0.73 ± 0.10 mL
MP after treatment [7]: 86.6±7.6 mmHg
effect on MP (in words) (conscious rats, i.v., NAN-190 up to the highest administrable dose of 300 µg/kg): inactive
